The text below walks through data of US20080220445A1, “Method of Screening Transmembrane Enzyme Inhibitory Substance” (TAKEDA PHARMACEUTICAL COMPANY LIMITED, priority 2004, published 2008).

In test [1] the target is T1, BACE1-454 (extracellular domain of β-secretase) (Homo sapiens, UniProt P56817).
T1 construct: made in house; host or cells: FreeStyle 293-F cells (HEK293), culture supernatant
In words: Inhibitory action on BACE protein, fluorescence-quenched peptide substrate. The test is classed as biochemical. The following applies: final concentration: 10 μM; 37° C. for 63 hr; pH 5.5. The method, then:
(§1) To 96 black well plate, 25 μl of 0.05 M acetate buffer (pH 5.5), 10 μl of 250 μM substrate (Nma-Ser-Glu-Val-Lys-Met-Asp-Ala-Glu-Lys(Dnp)-Arg-Arg-NH2; SEQ ID NO: 11), 10 μl of BACE1-474 (0.02 mg/ml) or BACE1-454 (0.01 mg/ml) obtained from the above-mentioned Reference Example 5 or a recombinant human BACE-1 (amino acid residues 1-460, R & D Systems) (0.025 mg/ml) commercially available as an extracellular domain, and 5 μl of each compound in 10% DMSO solution, and as a control, 5 μl of 10% DMSO were added respectively, and allowed to be reacted at 37° C. for 63 hr. After completion of the reaction, the fluorescence intensity (excitation wavelength at 325 nm, measurement wavelength at 460 nm) was measured with Fluoroscan ASCENT.

For test [2], the target named is T2, recombinant human BACE-1 (amino acid residues 1-460, R & D Systems) (Homo sapiens, UniProt P56817).
T2 construct: a recombinant human BACE-1 (amino acid residues 1-460, R & D Systems); purchased R & D Systems
Described as above. The test is classed as biochemical. The settings on record: final concentration: 10 μM; 37° C. for 63 hr; pH 5.5. The method, then:
as §1

The target of test [3] is T3, BACE1-474 (extracellular domain and transmembrane domain of β-secretase) (Homo sapiens, UniProt P56817).
T3 construct: made in house; host or cells: FreeStyle 293-F cells (HEK293)
The description is as above. The following applies: final concentration: 10 μM; 37° C. for 63 hr; pH 5.5; read-out: inhibition rates on BACE1-474. Type of test: biochemical. The method, then:
as §1

The target in the next test is T4, BACE1-465 (Homo sapiens, UniProt P56817).
T4 construct: made in house; host or cells: FreeStyle 293-F cells (HEK293), culture supernatant
In words: Inhibitory action on BACE1-465, fluorescence-quenched peptide substrate. The following applies: final concentration: 10 μM; 37° C. for 22 hr; pH5.5. The test is classed as biochemical. The method, then:
(§2) To 96 black well plate, 25 μl of 0.05M acetate buffer (pH5.5), 10 μl of 250 μM substrate (Nma-Ser-Glu-Val-Lys-Met-Asp-Ala-Glu-Lys(Dnp)-Arg-Arg-NH2; SEQ ID NO: 11), 10 μl of BACE1-471 (0.05 mg/ml) or BACE1-465 (0.04 mg/ml) obtained from the above-mentioned Reference Example 7, and 5 μl of 0.1 mM Compound A in 10% DMSO solution, and as a control, 5 μl of 10% DMSO were added respectively, and allowed to be reacted at 37° C. for 50 hr for BACE1-471 and for 22 hr for BACE1-465. After completion of the reaction, the fluorescence intensity (excitation wavelength at 325 nm, measurement wavelength at 460 nm) was measured with Fluoroscan ASCENT.

The target of the next test is T5, BACE1-471 (Homo sapiens, UniProt P56817).
T5 construct: made in house; host or cells: FreeStyle 293-F cells (HEK293)
Put plainly: Inhibitory action on BACE1-471, fluorescence-quenched peptide substrate. Type of test: biochemical. The following applies: pH 5.5; final concentration: 10 μM; 37° C. for 50 hr; pH5.5; read-out: inhibition rates on BACE1-471. The method, then: as §2

A further test has as its target T6, BACE1-501 (Homo sapiens, UniProt P56817).
T6 construct: Expression of full-length β-secretase protein (BACE1-501) was performed with FreeStyle 293 Expression System; made in house; host or cells: FreeStyle 293-F cells (HEK293)
In words: Detection of binding by surface plasmon resonance (Biacore3000). The following applies: PBS containing 10% DMSO and 0.005% Surfactant P20. The text has this:
Biacore3000 (Biacore) was used for analysis by surface plasmon resonance. BACE1-501 and the recombinant human BACE-1 (amino acid residue 1-460) were immobilized to carboxyl groups on CM5 sensorchip (carboxymethylated dextran matrix chip) activated with N-hydrosuccinimide (NHS)/N-ethyl-N′-(3-dimethyl-aminopropyl)-carbodiimide hydrochloride (EDC) in acetate buffer at pH 4.5. BACE1-454 and BACE1-474 were immobilized by the same way in acetate buffer at pH 4.0. The binding of the compound and the enzymes was measured in PBS containing 10% DMSO and 0.005% Surfactant P20. The correction of the difference of Resonance Unit (RU) value among flow cells resulting from the bulk effect was carried out with a correction curve made using the buffers with the DMSO concentration varied from 9% to 11% in the five-graded. As a result, signals showing the binding of each compound to BACE1-501 and BACE1-474 were observed. On the other hand, for BACE1-454 and the recombinant human BACE-1 (amino acid residue 1-460), no signal was observed showing the binding.

Each structure is given as a SMILES string.

T4 sequence (P56817 with tags, fused parts or gaps): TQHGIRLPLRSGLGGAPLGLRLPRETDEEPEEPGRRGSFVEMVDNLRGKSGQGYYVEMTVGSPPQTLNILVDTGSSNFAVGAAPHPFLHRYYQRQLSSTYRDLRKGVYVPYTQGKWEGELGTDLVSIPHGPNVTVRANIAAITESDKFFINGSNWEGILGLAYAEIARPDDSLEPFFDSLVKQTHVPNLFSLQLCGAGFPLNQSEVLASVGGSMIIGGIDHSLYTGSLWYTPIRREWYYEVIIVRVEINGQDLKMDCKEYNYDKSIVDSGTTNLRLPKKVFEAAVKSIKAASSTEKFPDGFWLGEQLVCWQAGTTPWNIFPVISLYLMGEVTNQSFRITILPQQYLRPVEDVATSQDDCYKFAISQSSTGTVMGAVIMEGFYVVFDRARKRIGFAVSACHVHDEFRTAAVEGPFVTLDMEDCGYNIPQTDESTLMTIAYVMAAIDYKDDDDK
T2 sequence (P56817 22-460): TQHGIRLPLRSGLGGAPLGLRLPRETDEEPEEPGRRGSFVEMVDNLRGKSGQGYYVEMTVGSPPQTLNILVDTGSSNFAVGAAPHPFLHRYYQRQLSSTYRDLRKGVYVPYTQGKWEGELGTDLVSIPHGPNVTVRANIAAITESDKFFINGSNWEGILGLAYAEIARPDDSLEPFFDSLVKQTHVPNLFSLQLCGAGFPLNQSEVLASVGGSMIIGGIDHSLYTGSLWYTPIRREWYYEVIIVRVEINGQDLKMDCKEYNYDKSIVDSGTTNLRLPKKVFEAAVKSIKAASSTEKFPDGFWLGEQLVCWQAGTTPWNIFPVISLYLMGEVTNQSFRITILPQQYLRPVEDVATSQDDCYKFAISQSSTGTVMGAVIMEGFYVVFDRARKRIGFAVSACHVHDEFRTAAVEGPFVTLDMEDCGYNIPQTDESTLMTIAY
T5 sequence (P56817 with tags, fused parts or gaps): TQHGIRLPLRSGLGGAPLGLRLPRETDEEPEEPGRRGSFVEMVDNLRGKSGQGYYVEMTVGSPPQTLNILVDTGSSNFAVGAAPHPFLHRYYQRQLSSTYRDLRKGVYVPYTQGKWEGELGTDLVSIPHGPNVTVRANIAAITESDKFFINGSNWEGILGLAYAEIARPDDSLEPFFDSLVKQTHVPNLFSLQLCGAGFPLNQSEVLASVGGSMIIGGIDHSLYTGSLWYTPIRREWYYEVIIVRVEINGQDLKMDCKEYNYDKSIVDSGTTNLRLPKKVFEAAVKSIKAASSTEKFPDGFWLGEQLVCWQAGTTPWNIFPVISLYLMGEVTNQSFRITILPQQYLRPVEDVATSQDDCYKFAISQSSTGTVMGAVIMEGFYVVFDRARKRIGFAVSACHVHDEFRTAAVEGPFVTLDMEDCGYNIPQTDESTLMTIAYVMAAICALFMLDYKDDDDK
T1 sequence (P56817 with tags, fused parts or gaps): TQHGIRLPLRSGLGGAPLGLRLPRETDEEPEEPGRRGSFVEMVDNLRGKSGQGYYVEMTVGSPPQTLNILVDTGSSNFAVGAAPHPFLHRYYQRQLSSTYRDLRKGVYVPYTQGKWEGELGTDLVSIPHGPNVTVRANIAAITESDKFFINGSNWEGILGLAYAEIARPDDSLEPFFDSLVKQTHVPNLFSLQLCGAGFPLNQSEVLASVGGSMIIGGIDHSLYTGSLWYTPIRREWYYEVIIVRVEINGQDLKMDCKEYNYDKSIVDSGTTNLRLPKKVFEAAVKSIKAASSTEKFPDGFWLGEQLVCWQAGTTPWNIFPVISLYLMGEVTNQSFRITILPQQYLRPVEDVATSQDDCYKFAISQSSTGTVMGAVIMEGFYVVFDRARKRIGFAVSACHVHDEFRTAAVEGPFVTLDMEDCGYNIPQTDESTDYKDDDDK
T3 sequence (P56817 with tags, fused parts or gaps): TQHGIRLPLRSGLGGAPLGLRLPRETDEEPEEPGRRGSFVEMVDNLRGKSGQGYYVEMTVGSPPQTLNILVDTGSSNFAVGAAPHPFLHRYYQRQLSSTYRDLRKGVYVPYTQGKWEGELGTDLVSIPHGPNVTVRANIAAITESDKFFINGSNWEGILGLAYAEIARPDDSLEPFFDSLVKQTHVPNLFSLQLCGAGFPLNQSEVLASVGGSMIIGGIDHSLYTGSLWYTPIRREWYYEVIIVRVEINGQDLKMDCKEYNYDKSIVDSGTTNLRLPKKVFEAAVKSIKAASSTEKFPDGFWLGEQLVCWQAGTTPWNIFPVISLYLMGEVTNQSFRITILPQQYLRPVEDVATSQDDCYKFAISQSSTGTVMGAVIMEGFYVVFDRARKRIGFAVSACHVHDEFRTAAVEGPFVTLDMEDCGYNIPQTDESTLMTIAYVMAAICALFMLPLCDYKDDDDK
T6 sequence (P56817 with tags, fused parts or gaps): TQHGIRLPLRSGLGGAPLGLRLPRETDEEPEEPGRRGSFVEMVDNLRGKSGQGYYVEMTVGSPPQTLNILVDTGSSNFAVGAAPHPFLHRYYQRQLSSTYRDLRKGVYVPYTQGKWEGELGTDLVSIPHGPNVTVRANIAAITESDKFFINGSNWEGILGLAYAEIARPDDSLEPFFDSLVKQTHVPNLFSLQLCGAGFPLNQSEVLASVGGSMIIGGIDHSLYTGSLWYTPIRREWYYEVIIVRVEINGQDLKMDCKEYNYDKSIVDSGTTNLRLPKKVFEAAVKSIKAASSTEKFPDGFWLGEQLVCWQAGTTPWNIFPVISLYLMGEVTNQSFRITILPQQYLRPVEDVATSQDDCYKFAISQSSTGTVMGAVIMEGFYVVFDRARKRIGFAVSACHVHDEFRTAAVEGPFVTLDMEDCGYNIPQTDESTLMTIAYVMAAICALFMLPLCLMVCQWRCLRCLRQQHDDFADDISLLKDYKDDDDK

On to `CN(C)CC[C@@H]1CCc2cc(OCc3ccc(-c4ccccc4)cc3)ccc2C1` [Compound A], for which the “inhibitory activity on BACE1-454” value in test [1] was “no inhibitory activity”. Moreover, in test [2], the “inhibitory activity on the recombinant human BACE-1” value was “no inhibitory activity”. Moreover, the results for the inhibition at 10 µM (in test [3]; on BACE1-471) were 30% and 29%, respectively. Besides, the “inhibitory activity on BACE1-465” value on BACE1-465 was “no inhibitory activity”.
On to `CCN(CC)CCC1CCc2cc(OCc3ccc(-c4ccccc4)cc3)ccc2C1` (centres unmarked) [Compound D], for which the “inhibitory activity on BACE1-454” value in test [1] is recorded as “no inhibitory activity”. Moreover, in test [2], the “inhibitory activity on the recombinant human BACE-1” value was “no inhibitory activity”. The inhibition at 10 µM in test [3] was found to be 38%; on BACE1-471, 42%. Besides, the “inhibitory activity on BACE1-465” value on BACE1-465 is “no inhibitory activity”.
`C[N+](C)([O-])CC[C@@H]1CCc2cc(OCc3ccc(-c4ccccc4)cc3)ccc2C1` [Compound H]: the “inhibitory activity on BACE1-454” value in test [1] was “no inhibitory activity”. The “inhibitory activity on the recombinant human BACE-1” value in test [2] is listed as “no inhibitory activity”. Also, the inhibition at 10 µM came out at 34% in test [3] and 31% on BACE1-471. Also, on BACE1-465, the “inhibitory activity on BACE1-465” value was “no inhibitory activity”.
In the case of `NCCC1CCc2cc(OCc3ccc(-c4ccccc4)cc3)ccc2C1` (centres unmarked) [Compound I], the “inhibitory activity on BACE1-454” value in test [1] was “no inhibitory activity”. In addition, the “inhibitory activity on the recombinant human BACE-1” value in test [2] was “no inhibitory activity”. For the same compound, the inhibition at 10 µM worked out at 37% in test [3] and 70% at BACE1-471. For the same compound, on BACE1-465, the “inhibitory activity on BACE1-465” value is “no inhibitory activity”.
Regarding `Cc1ccc(-c2ccc(COc3ccc4c(c3)CC[C@@H](CCN(C)C)C4)cc2)cc1` [Compound J], in test [1], the “inhibitory activity on BACE1-454” value is reported as “no inhibitory activity”. The “inhibitory activity on the recombinant human BACE-1” value in test [2] is “no inhibitory activity”. Besides, the inhibition at 10 µM is 37% in test [3] and 48% on BACE1-471. Besides, the “SPR signal showing the binding to BACE1-501” value on BACE1-501 is “binding”. On BACE1-465, the “inhibitory activity on BACE1-465” value is reported as “no inhibitory activity”.
